row,melting point [°C],Structure (SMILES)
1,221,"CCc1ccc(N2C(=O)N(CC(=O)Nc3c(C(C)C)cccc3C(C)C)C(=O)C23CCCCC3)cc1 [compound (I.36), N-(2,6-Diisopropylphenyl)-2-[1-(4-ethylphenyl)-2,4-dioxo-1,3-diazaspiro[4.5]dec-3-yl]acetamide]"
2,202,"CCCCCCCCN1C(=O)N(CC(=O)Nc2c(C(C)C)cccc2C(C)C)C(=O)C12CCCCC2 [compound (I.44), N-(2,6-Diisopropylphenyl)-2-(1-octyl-2,4-dioxo-1,3-diazaspiro[4.5]dec-3-yl)acetamide]"
3,230,"CC(C)c1cccc(C(C)C)c1NC(=O)CN1C(=O)N(c2ccccc2)C2(CCCCCC2)C1=O [compound (I.9), N-(2,6-Diisopropylphenyl)-2-(2,4-dioxo-1-phenyl-1,3-diazaspiro[4.6]undec-3-yl)acetamide]"
4,230,"CC(C)c1cccc(C(C)C)c1NC(=O)CN1C(=O)N(c2ccc(CO)cc2)C2(CCCCC2)C1=O [compound (I.42), N-(2,6-Diisopropylphenyl)-2-[1-(4-hydroxymethylphenyl)-2,4-dioxo-1,3-diazaspiro[4.5]dec-3-yl]acetamide]"
5,215,"Cc1cccc(N2C(=O)N(CC(=O)Nc3c(C(C)C)cccc3C(C)C)C(=O)C23CCCCC3)c1 [compound (I.16), N-(2,6-Diisopropylphenyl)-2-(2,4-dioxo-1-m-tolyl-1,3-diazaspiro[4.5]dec-3-yl)acetamide]"
6,234,"CC(C)c1cccc(C(C)C)c1NC(=O)CN1C(=O)N(c2cccc(F)c2)C2(CCCCC2)C1=O [compound (I.11), N-(2,6-Diisopropylphenyl)-2-[1-(3-fluorophenyl)-2,4-dioxo-1,3-diazaspiro[4.5]dec-3-yl]acetamide]"
7,183,"CCCCCCCCCN1C(=O)N(CC(=O)Nc2c(C(C)C)cccc2C(C)C)C(=O)C12CCCCC2 [compound (I.43), N-(2,6-Diisopropylphenyl)-2-(1-nonyl-2,4-dioxo-1,3-diazaspiro[4.5]dec-3-yl)acetamide]"
8,248,CC(C)c1cccc(C(C)C)c1NC(=O)CN1C(=O)N(C2CCCCCC2)C2(CCCCC2)C1=O [compound (I.15)]
9,222,"CCCN1C(=O)N(CC(=O)Nc2c(CC)cccc2CC)C(=O)C12CCCCC2 [compound (I.55), N-(2,6-Diethylphenyl)-2-(2,4-dioxo-1-propyl-1,3-diazaspiro[4.5]dec-3-yl)acetamide]"
10,191,"CCc1ccc(N2C(=O)N(CC(=O)Nc3c(CC)cccc3CC)C(=O)C23CCCC3)cc1 [compound (I.57), N-(2,6-Diethylphenyl)-2-[1-(4-ethylphenyl)-2,4-dioxo-1,3-diazaspiro[4.4]non-3-yl]acetamide]"
11,223,"CCc1cc(C)cc(CC)c1NC(=O)CN1C(=O)N(c2ccc(C)cc2)C2(CCCCC2)C1=O [compound (I.49), N-(2,6-Diethyl-4-methylphenyl)-2-(2,4-dioxo-1-p-tolyl-1,3-diazaspiro[4.5]dec-3-yl)acetamide]"
12,214,"CC(C)c1cccc(C(C)C)c1NC(=O)CN1C(=O)N(Cc2ccccc2)C2(CCCCC2)C1=O [compound (I.22), 2-(1-Benzyl-2,4-dioxo-1,3-diazaspiro[4.5]dec-3-yl)-N-(2,6-diisopropyl-phenyl)acetamide]"
13,229,"COc1ccccc1N1C(=O)N(CC(=O)Nc2c(C(C)C)cccc2C(C)C)C(=O)C12CCCCC2 [compound (I.33), N-(2,6-Diisopropylphenyl)-2-[1-(2-methoxyphenyl)-2,4-dioxo-1,3-diazaspiro[4.5]dec-3-yl]acetamide]"
14,257,"CC(C)c1cccc(C(C)C)c1NC(=O)CN1C(=O)N(C2CCCC2)C2(CCCCC2)C1=O [compound (I.13), 2-(1-Cyclopentyl-2,4-dioxo-1,3-diazaspiro[4.5]dec-3-yl)-N-(2,6-diisopropyl-phenyl)acetamide]"
15,193,"COc1ccc(N2C(=O)N(CC(=O)Nc3c(C(C)C)cccc3C(C)C)C(=O)C23CCCCC3)cc1 [compound (I.8), N-(2,6-Diisopropylphenyl)-2-[1-(4-methoxyphenyl)-2,4-dioxo-1,3-diazaspiro[4.5]dec-3-yl]acetamide]"
16,171,"CCCCc1ccc(N2C(=O)N(CC(=O)Nc3c(CC)cccc3CC)C(=O)C23CCCCC3)cc1 [compound (I.56), 2-[1-(4-Butylphenyl)-2,4-dioxo-1,3-diazaspiro[4.5]dec-3-yl]-N-(2,6-diethyl-phenyl)acetamide]"
17,200,"CCCCCN1C(=O)N(CC(=O)Nc2c(C(C)C)cccc2C(C)C)C(=O)C12CCCCC2 [compound (I.29), N-(2,6-Diisopropylphenyl)-2-(2,4-dioxo-1-pentyl-1,3-diazaspiro[4.5]dec-3-yl)acetamide]"
18,179,"CCc1cccc(CC)c1NC(=O)CN1C(=O)N(Cc2ccccc2)C2(CCCCC2)C1=O [compound (I.63), 2-(1-Benzyl-2,4-dioxo-1,3-diazaspiro[4.5]dec-3-yl)-N-(2,6-diethylphenyl)-acetamide]"

row,melting point [°C],Structure (SMILES)
1,120,"Cc1ccc(N2C(=O)N(CC(=O)Nc3c(C)cccc3C(C)(C)C)C(=O)C23CCCCC3)cc1 [compound (I.53), N-(2-tert-Butyl-6-methylphenyl)-2-(2,4-dioxo-1-p-tolyl-1,3-diazaspiro[4.5]dec-3-yl)acetamide]"
2,248,"Cc1ccc(N2C(=O)N(CC(=O)Nc3c(C)cc(C)cc3Cl)C(=O)C23CCCCC3)cc1 [compound (I.50), N-(2-Chloro-4,6-dimethylphenyl)-2-(2,4-dioxo-1-p-tolyl-1,3-diazaspiro[4.5]dec-3-yl)acetamide]"
3,198,"COc1cccc(N2C(=O)N(CC(=O)Nc3c(C(C)C)cccc3C(C)C)C(=O)C23CCCCC3)c1 [compound (I.18), N-(2,6-Diisopropylphenyl)-2-[1-(3-methoxyphenyl)-2,4-dioxo-1,3-diazaspiro[4.5]dec-3-yl]acetamide]"
4,205,"CCCCCCN1C(=O)N(CC(=O)Nc2c(C(C)C)cccc2C(C)C)C(=O)C12CCCCC2 [compound (I.35), N-(2,6-Diisopropylphenyl)-2-(1-hexyl-2,4-dioxo-1,3-diazaspiro[4.5]dec-3-yl)acetamide]"
5,242,"Cc1cc(C(=O)N(C)c2ccccc2)cc(C)c1NC(=O)CN1C(=O)N(c2ccccc2)C2(CCCCC2)C1=O [compound (I.4), 4-[2-(2,4-Dioxo-1-phenyl-1,3-diazaspiro[4.5]dec-3-y]acetylamino]-3,5,N-tri methyl-N-phenylbenzamide]"
6,240,"CC(C)c1cccc(C(C)C)c1NC(=O)CN1C(=O)N(CC2CC2)C2(CCCCC2)C1=O [compound (I.31), 2-(1-Cyclopropylmethyl-2,4-dioxo-1,3-diazaspiro[4.5]dec-3-yl)-N-(2,6-di-isopropylphenyl)acetamide]"
7,232,"CC(C)c1cccc(C(C)C)c1NC(=O)CN1C(=O)N(c2ccc(OCc3ccccc3)cc2)C2(CCCC2)C1=O [compound (I.41), 2-[1-(4-Benzyloxyphenyl)-2,4-dioxo-1,3-diazaspiro[4.4]non-3-yl]-N-(2,6-di-isopropylphenyl)acetamide]"
8,188,"CCc1ccc(N2C(=O)N(CC(=O)Nc3c(CC)cccc3CC)C(=O)C23CCCCC3)cc1 [compound (I.54), N-(2,6-Diethylphenyl)-2-[1-(4-ethylphenyl)-2,4-dioxo-1,3-diazaspiro[4.5]dec-3-yl]acetamide]"
9,252,"CC(C)c1cccc(C(C)C)c1NC(=O)CN1C(=O)N(c2ccccc2Cl)C2(CCCCC2)C1=O [compound (I.20), 2-[1-(2-Chlorophenyl)-2,4-dioxo-1,3-diazaspiro[4.5]dec-3-yl]-N-(2,6-di-isopropylphenyl)acetamide]"
10,209,"CCc1cccc(CC)c1NC(=O)CN1C(=O)N(CC(C)C)C2(CCCCC2)C1=O [compound (I.59), N-(2,6-Diethylphenyl)-2-(1-isobutyl-2,4-dioxo-1,3-diazaspiro[4.5]dec-3-yl)acetamide]"
11,219,"CC(C)c1cccc(C(C)C)c1NC(=O)CN1C(=O)N(CC2CCCCC2)C2(CCCCC2)C1=O [compound (I.27), 2-(1-Cyclohexylmethyl-2,4-dioxo-1,3-diazaspiro[4.5]dec-3-yl)-N-(2,6-di-isopropylphenyl)acetamide]"
12,253,"CCCN1C(=O)N(CC(=O)Nc2c(C(C)C)cccc2C(C)C)C(=O)C12CCCCC2 [compound (I.25), N-(2,6-Diisopropylphenyl)-2-(2,4-dioxo-1-propyl-1,3-diazaspiro[4.5]dec-3-yl)acetamide]"
13,178,"CCc1cccc(CC)c1NC(=O)CN1C(=O)N(CCc2ccccc2)C2(CCCCC2)C1=O [compound (I.51), N-(2,6-Diethylphenyl)-2-(2,4-dioxo-1-phenethyl-1,3-diazaspiro[4.5]dec-3-yl)acetamide]"
14,195,"Cc1ccc(N2C(=O)N(CC(=O)Nc3c(C)cccc3C(C)C)C(=O)C23CCCCC3)cc1 [compound (I.47), 2-(2,4-Dioxo-1-p-tolyl-1,3-diazaspiro[4.5]dec-3-yl)-N-(2-isopropyl-6-methylphenyl)acetamide]"
15,250,"CC(C)c1cccc(C(C)C)c1NC(=O)CN1C(=O)N(CC(C)(C)C)C2(CCCCC2)C1=O [compound (I.32), N-(2,6-Diisopropylphenyl)-2-[1-(2,2-dimethylpropyl)-2,4-dioxo-1,3-diazaspiro[4.5]dec-3-yl]acetamide]"
16,237,"CC(C)c1cccc(C(C)C)c1NC(=O)CN1C(=O)N(c2ccc(Cl)cc2)C2(CCCCC2)C1=O [compound (I.6), 2-[1-(4-Chlorophenyl)-2,4-dioxo-1,3-diazaspiro[4.5]dec-3-yl]-N-(2,6-di-isopropylphenyl)acetamide]"
17,126,"CCCCCCCN1C(=O)N(CC(=O)Nc2c(CC)cccc2CC)C(=O)C12CCCCC2 [compound (I.58), N-(2,6-Diethylphenyl)-2-(1-heptyl-2,4-dioxo-1,3-diazaspiro[4.5]dec-3-yl)acetamide]"
18,268,"CC(C)c1cccc(C(C)C)c1NC(=O)CN1C(=O)N(c2ccc(F)cc2)C2(CCCC2)C1=O [compound (I.17), N-(2,6-Diisopropylphenyl)-2-[1-(4-fluorophenyl)-2,4-dioxo-1,3-diazaspiro[4.4]non-3-yl]acetamide]"
